Measured values reported in patent publication US20080274892A1, “Novel Haloalkylsulfonanilide Derivative, Herbicide, and Method of Use Thereof” (priority 2005, published 2008).

Assays:
[1] = test system: barnyard glass; assay: Test Example 2: herbicidal efficacy on rice paddy weeds post-emergence; type: in vivo, Echinochloa crus-galli; settings: dosage 1000 g/ha; post-emergence, one leaf stage; 21 days after treatment
Outline: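 Efficacy on paddy weeds was scored on a 0 to 4 growth-inhibition scale: 4 for 90%-100%, 3 for 70%-89%, 2 for 40%-69%, 1 for 1%-39% and 0 for 0%. Barnyard glass was grown in clay loam in 75 cm^2 pots under 5 cm of water in a hot house. It was compared with untreated pots 21 days after treatment.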

[2] = test system: false pimpernel; assay: as above; type: in vivo, Lindernia pyxidaria; settings: dosage 1000 g/ha; post-emergence, one leaf stage; 21 days after treatment
[3] = test system: false pimpernel; assay: Test Example 1: herbicidal efficacy on rice paddy weeds pre-emergence; type: in vivo, Lindernia pyxidaria; settings: dosage 1000 g/ha, 21 days
[4] = test system: bulrush; assay: Test Example 2: herbicidal efficacy on rice paddy weeds post-emergence; type: in vivo, Scirpus juncoides; settings: dosage 1000 g/ha; post-emergence, one leaf stage; 21 days after treatment
[5] = test system: bulrush; assay: Test Example 1: herbicidal efficacy on rice paddy weeds pre-emergence; type: in vivo, Scirpus juncoides; settings: dosage 1000 g/ha, 21 days
[6] = test system: transplanted paddy rice plant and Bulrush; assay: Test Example 5: selectivity between transplanted paddy rice plant and weeds; type: in vivo; settings: (highest dosage with no phytotoxicity to paddy rice)/(lowest dosage with effective level 4 on Bulrush); rice 3000-100 g/ha, Bulrush 300-10 g/ha; 21 days
Outline: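 Scoring ran 21 days after treatment in a hothouse on a 0–4 scale (4 = 90–100%, 3 = 70–89%, 2 = 40–69%, 1 = 1–39%, 0 = none) relative to untreated plants. Post-emergence bulrush received 10, 30, 100 and 300 g/ha active ingredient. Transplanted rice received 100, 300, 1000 and 3000 g/ha to assess crop injury.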

[7] = test system: bulrush; assay: Test Example 4: low dosage test for rice paddy weeds; type: in vivo, Scirpus juncoides; settings: 300 g/ha as an active ingredient; plants treated at the one leaf stage; 21 days after treatment; vs untreated control
Outline: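 Compound applied as a formulation at 300 g/ha to one-leaf bulrush grown in flooded clay loam (5 cm water) in a hot house. After 21 days, growth inhibition versus untreated plants rated on a 0–4 scale, with 4 meaning 90–100%.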

[8] = test system: paddy rice plant (cultivar: Nihonbare); assay: Test Example 3: phytotoxicity test for transplanted paddy rice plant; type: in vivo; settings: dosage 1000 g/ha; transplanted rice, treated 5 days after transplantation; 21 days after treatment
Outline: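 Clay loam soil was placed in a 75 cm^2 plastic pot and flooded to a water depth of 5 cm. Two Nihonbare paddy rice plants at the two-leaf stage were transplanted 1 cm deep and grown in a hot house. After treatment, pots stayed in the hot house for 21 days, and phytotoxicity was then graded against an untreated control.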

Row | SMILES | Burnyard grass post (herbicidal efficacy grade) [1] | False pimpernel post (herbicidal efficacy grade) [2] | False pimpernel pre (herbicidal efficacy grade) [3] | Bulrush post (herbicidal efficacy grade) [4] | Bulrush pre (herbicidal efficacy grade) [5] | Selective Index [6] | Herbicide effect to Bulrush [7] | Phytotoxicity to paddy rice [8]
1 | CCCCOC(=O)N(c1ccccc1CN1CC(C)(C(C)C)OC1=O)S(=O)(=O)C(F)(F)F (racemic) [1-117] | 4 (90%-100% of herbicidal efficacy or phytotoxicity) | 4 (90%-100% of herbicidal efficacy or phytotoxicity) | 4 (90%-100% of herbicidal efficacy or phytotoxicity) | 4 (90%-100% of herbicidal efficacy or phytotoxicity) | 4 (90%-100% of herbicidal efficacy or phytotoxicity) | 10 | 4 (90%-100% of herbicidal efficacy or phytotoxicity) | 2 (40%-69% of herbicidal efficacy or phytotoxicity)
2 | COC(=O)N(c1ccccc1CN1CC(C)(C2CCCCC2)OC1=O)S(=O)(=O)C(F)(F)F (stereo not shown) [1-157] | 4 (90%-100% of herbicidal efficacy or phytotoxicity) | 4 (90%-100% of herbicidal efficacy or phytotoxicity) | 4 (90%-100% of herbicidal efficacy or phytotoxicity) | 4 (90%-100% of herbicidal efficacy or phytotoxicity) | 4 (90%-100% of herbicidal efficacy or phytotoxicity) | 3 | 3 (70%-89% of herbicidal efficacy or phytotoxicity) | 1 (1%-39% of herbicidal efficacy or phytotoxicity)
3 | CCCCOC(=O)N(c1ccccc1CN1CC(CC)(CC)OC1=O)S(=O)(=O)C(F)(F)F [1-99] | 4 (90%-100% of herbicidal efficacy or phytotoxicity) | 4 (90%-100% of herbicidal efficacy or phytotoxicity) | 4 (90%-100% of herbicidal efficacy or phytotoxicity) | 4 (90%-100% of herbicidal efficacy or phytotoxicity) | 4 (90%-100% of herbicidal efficacy or phytotoxicity) | 10 | 4 (90%-100% of herbicidal efficacy or phytotoxicity) | 1 (1%-39% of herbicidal efficacy or phytotoxicity)
4 | CC(C)COC(=O)N(c1ccccc1CN1CC(C)(C)SC1=O)S(=O)(=O)C(F)(F)F [Compound No. 1-185, 3-{2-[N-(isobutoxycarbonyl)-N-(trifluoromethanesulfonyl)amino]benzyl}-5,5-dimethylthiazolidin-2-one] | 4 (90%-100% of herbicidal efficacy or phytotoxicity) | 4 (90%-100% of herbicidal efficacy or phytotoxicity) | 4 (90%-100% of herbicidal efficacy or phytotoxicity) | 4 (90%-100% of herbicidal efficacy or phytotoxicity) | 4 (90%-100% of herbicidal efficacy or phytotoxicity) | 33.3 | 4 (90%-100% of herbicidal efficacy or phytotoxicity) | 0 (0% of herbicidal efficacy or phytotoxicity)
5 | COC(=O)N(c1ccccc1CN1CC(C)(C(F)(F)F)OC1=O)S(=O)(=O)C(F)(F)F (stereo not shown) [1-143] | 4 (90%-100% of herbicidal efficacy or phytotoxicity) | 4 (90%-100% of herbicidal efficacy or phytotoxicity) | 4 (90%-100% of herbicidal efficacy or phytotoxicity) | 4 (90%-100% of herbicidal efficacy or phytotoxicity) | 4 (90%-100% of herbicidal efficacy or phytotoxicity) | 10 | 4 (90%-100% of herbicidal efficacy or phytotoxicity) | 1 (1%-39% of herbicidal efficacy or phytotoxicity)
